Reference: ChEMBL document CHEMBL1177878, “Synthesis and hypolipidemic activity of novel 2-(4-(2-substituted aminothiazole-4-yl) phenoxy) acetic acid derivatives” (Eur J Med Chem, 2010)

How the values were obtained:
Rattus norvegicus [1] = assay: Toxicity in high fat diet-induced hyperlipidemic Sprague-Dawley rat model assessed as increase of locomotor activity at 50 mg/kg, po for 7 days measured for 5 mins; type: organism-based; parameters: dose 50 mg/kg, route oral; conditions: in vivo
Rattus norvegicus [2] = assay: Antihyperlipidemic activity in high fat diet-induced hyperlipidemic Sprague-Dawley rat model assessed as reduction of blood triglyceride level at 50 mg/kg, po for 7 days (reference value: 142.4 +/- 1.53 mg/dl); type: functional
Rattus norvegicus [3] = assay: Antihyperlipidemic activity in high fat diet-induced hyperlipidemic Sprague-Dawley rat model assessed as increase of blood HDL level at 50 mg/kg, po for 7 days (reference value: 18.6 +/- 1.36 mg/dl); type: functional
Rattus norvegicus [4] = assay: Antihyperlipidemic activity in high fat diet-induced hyperlipidemic Sprague-Dawley rat model assessed as reduction of blood LDL level at 50 mg/kg, po for 7 days (reference value: 51.8 +/- 2.03 mg/dl); type: functional
Rattus norvegicus [5] = assay: Antihyperlipidemic activity in high fat diet-induced hyperlipidemic Sprague-Dawley rat model assessed as reduction of body circumference at 50 mg/kg, po for 7 days; type: functional
Rattus norvegicus [6] = assay: Antihyperlipidemic activity in high fat diet-induced hyperlipidemic Sprague-Dawley rat model assessed as reduction of body weight at 50 mg/kg, po for 7 days; type: functional
Rattus norvegicus [7] = assay: Antihyperlipidemic activity in high fat diet-induced hyperlipidemic Sprague-Dawley rat model assessed as reduction of blood cholesterol level at 50 mg/kg, po for 7 days (reference value: 128.8 +/- 1.20 mg/dl); type: functional
Rattus norvegicus [8] = assay: Antihyperlipidemic activity in high fat diet-induced hyperlipidemic Sprague-Dawley rat model assessed as reduction of blood VLDL level at 50 mg/kg, po for 7 days (reference value: 26.2 +/- 1.20 mg/dl); type: functional
Rattus norvegicus [9] = assay: Antihyperlipidemic activity in high fat diet-induced hyperlipidemic Sprague-Dawley rat model assessed as reduction of blood LDL level at 250 mg/kg, po for 7 days (reference value: 51.8 +/- 2.03 mg/dl); type: functional
Rattus norvegicus [10] = assay: Antihyperlipidemic activity in high fat diet-induced hyperlipidemic Sprague-Dawley rat model assessed as reduction of body circumference at 250 mg/kg, po for 7 days; type: functional
Rattus norvegicus [11] = assay: Antihyperlipidemic activity in high fat diet-induced hyperlipidemic Sprague-Dawley rat model assessed as increase of blood HDL level at 250 mg/kg, po for 7 days (reference value: 18.6 +/- 1.36 mg/dl); type: functional
Rattus norvegicus [12] = assay: Toxicity in high fat diet-induced hyperlipidemic Sprague-Dawley rat model assessed as increase of locomotor activity at 250 mg/kg, po for 7 days measured for 5 mins; type: organism-based; parameters: dose 250 mg/kg, route oral; conditions: in vivo
Rattus norvegicus [13] = assay: Antihyperlipidemic activity in high fat diet-induced hyperlipidemic Sprague-Dawley rat model assessed as reduction of blood cholesterol level at 250 mg/kg, po for 7 days (reference value: 128.8 +/- 1.20 mg/dl); type: functional
Rattus norvegicus [14] = assay: Antihyperlipidemic activity in high fat diet-induced hyperlipidemic Sprague-Dawley rat model assessed as reduction of body weight at 250 mg/kg, po for 7 days; type: functional
Rattus norvegicus [15] = assay: Antihyperlipidemic activity in high fat diet-induced hyperlipidemic Sprague-Dawley rat model assessed as reduction of blood triglyceride level at 250 mg/kg, po for 7 days (reference value: 142.4 +/- 1.53 mg/dl); type: functional

Nc1ccc(C(=O)CNc2nc(-c3ccc(OCC(=O)O)cc3)cs2)cc1
Activity (Rattus norvegicus [1]): Toxic | Activity (Rattus norvegicus [2]): 110.4 mg/dL | Activity (Rattus norvegicus [3]): 27 mg/dL | Activity (Rattus norvegicus [4]): 36.8 mg/dL | Activity (Rattus norvegicus [5]): 12 cm | Activity (Rattus norvegicus [6]): 237.333 g | Activity (Rattus norvegicus [7]): 77.6 mg/dL | Activity (Rattus norvegicus [8]): 26.2 mg/dL

CC(=O)Nc1nc(-c2ccc(OCC(=O)O)cc2)cs1
Activity (Rattus norvegicus [1]): Non-toxic | Activity (Rattus norvegicus [2]): 107.6 mg/dL | Activity (Rattus norvegicus [3]): 31.8 mg/dL | Activity (Rattus norvegicus [4]): 51.4 mg/dL | Activity (Rattus norvegicus [5]): 12.516 cm | Activity (Rattus norvegicus [6]): 250.833 g | Activity (Rattus norvegicus [7]): 104 mg/dL | Activity (Rattus norvegicus [8]): 22.6 mg/dL

O=C(O)COc1ccc(-c2csc(NC(=O)c3ccccc3)n2)cc1
Activity (Rattus norvegicus [1]): Toxic | Activity (Rattus norvegicus [2]): 114.6 mg/dL | Activity (Rattus norvegicus [3]): 28.4 mg/dL | Activity (Rattus norvegicus [4]): 34.2 mg/dL | Activity (Rattus norvegicus [5]): 13.1 cm | Activity (Rattus norvegicus [6]): 239.666 g | Activity (Rattus norvegicus [7]): 89.2 mg/dL | Activity (Rattus norvegicus [8]): 25 mg/dL

CCC(=O)Nc1nc(-c2ccc(OCC(=O)O)cc2)cs1
Activity (Rattus norvegicus [1]): Toxic | Activity (Rattus norvegicus [2]): 103.6 mg/dL | Activity (Rattus norvegicus [3]): 30.4 mg/dL | Activity (Rattus norvegicus [4]): 33 mg/dL | Activity (Rattus norvegicus [5]): 10.483 cm | Activity (Rattus norvegicus [6]): 224.166 g | Activity (Rattus norvegicus [7]): 86.6 mg/dL | Activity (Rattus norvegicus [8]): 21 mg/dL

O=C(O)COc1ccc(-c2csc(NC(=O)CCl)n2)cc1
Activity (Rattus norvegicus [1]): Toxic | Activity (Rattus norvegicus [2]): 118.4 mg/dL | Activity (Rattus norvegicus [3]): 34.4 mg/dL | Activity (Rattus norvegicus [4]): 34.8 mg/dL | Activity (Rattus norvegicus [5]): 9.5 cm | Activity (Rattus norvegicus [6]): 230.666 g | Activity (Rattus norvegicus [7]): 92 mg/dL | Activity (Rattus norvegicus [8]): 28 mg/dL

O=C(O)COc1ccc(-c2csc(NCc3ccccc3)n2)cc1
Activity (Rattus norvegicus [1]): Toxic | Activity (Rattus norvegicus [2]): 140.2 mg/dL | Activity (Rattus norvegicus [3]): 20.2 mg/dL | Activity (Rattus norvegicus [4]): 53.8 mg/dL | Activity (Rattus norvegicus [5]): 13.066 cm | Activity (Rattus norvegicus [6]): 248.5 g | Activity (Rattus norvegicus [7]): 122.2 mg/dL | Activity (Rattus norvegicus [8]): 22.4 mg/dL

O=C(O)COc1ccc(-c2csc(NCC(=O)c3ccc(Cl)cc3)n2)cc1
Activity (Rattus norvegicus [1]): Toxic | Activity (Rattus norvegicus [2]): 136.6 mg/dL | Activity (Rattus norvegicus [3]): 18.6 mg/dL | Activity (Rattus norvegicus [4]): 50 mg/dL | Activity (Rattus norvegicus [5]): 12.35 cm | Activity (Rattus norvegicus [6]): 220.5 g | Activity (Rattus norvegicus [7]): 119.2 mg/dL | Activity (Rattus norvegicus [8]): 27.2 mg/dL

O=C(O)COc1ccc(-c2csc(NCC(=O)c3ccc([N+](=O)[O-])cc3)n2)cc1
Activity (Rattus norvegicus [1]): Non-toxic | Activity (Rattus norvegicus [2]): 122.8 mg/dL | Activity (Rattus norvegicus [3]): 24.6 mg/dL | Activity (Rattus norvegicus [4]): 43.2 mg/dL | Activity (Rattus norvegicus [5]): 12.85 cm | Activity (Rattus norvegicus [6]): 258.166 g | Activity (Rattus norvegicus [7]): 106.8 mg/dL | Activity (Rattus norvegicus [8]): 20.2 mg/dL

CC(C)OC(=O)C(C)(C)Oc1ccc(C(=O)c2ccc(Cl)cc2)cc1 [FENOFIBRATE]
Activity (Rattus norvegicus [9]): 37.2 mg/dL | Activity (Rattus norvegicus [10]): 9.5 cm | Activity (Rattus norvegicus [11]): 28.4 mg/dL | Activity (Rattus norvegicus [12]): Toxic | Activity (Rattus norvegicus [13]): 83.2 mg/dL | Activity (Rattus norvegicus [14]): 229.666 g | Activity (Rattus norvegicus [15]): 91.6 mg/dL
